Laboratory results from ChEMBL document CHEMBL5053546, “Peptidomimetic analogues of an Arg-Trp-x-x-Trp motif responsible for interaction of translocase MraY with bacteriophage ϕX174 lysis protein E” (Bioorg Med Chem, 2021).
Values after ≈ are worked out from the molar mass of the structure shown. Active and inactive are the calls of the source. The rule behind the calls is not given here.

Assays:
[1] = system: Escherichia coli; assay: Antibacterial activity against Escherichia coli K-12 assessed as reduction in bacterial growth incubated overnight by microplate reader analysis; format: functional
[2] = system: Bacillus subtilis; assay: Antibacterial activity against Bacillus subtilis W23 assessed as reduction in bacterial growth incubated overnight by microplate reader analysis; format: functional
[3] = system: Pseudomonas fluorescens; assay: Antibacterial activity against Pseudomonas fluorescence Pf-5 assessed as reduction in bacterial growth incubated overnight by microplate reader analysis; format: functional
[4] = system: Escherichia coli; assay: Inhibition of MraY overexpressed in Escherichia coli membrane using UDP-MurNAc-L-Ala-gamma-D-Glu-L-Lys(N epsilon-dansyl)-D-Ala-D-Ala as substrate at 200 ug/ml by fluoresence enhancement assay; format: cell membranes; conditions: dose 200.0 µg/ml
[5] = system: Escherichia coli; assay: Bacteriocidal activity against Escherichia coli at 250 ug/ml incubated for 1 hr followed by alamar blue addition measured after 2 to 3 hrs by fluorescence based analysis; format: functional, organism-based; conditions: dose 250.0 µg/ml
[6] = system: Escherichia coli; assay: Inhibition of Escherichia coli MraY overexpressed in Escherichia coli membrane using UDP-MurNAc-L-Ala-gamma-D-Glu-L-Lys(N epsilon-dansyl)-D-Ala-D-Ala as substrate at 200 uM by continuous fluoresence assay relative to control; format: cell membranes
[7] = system: Pseudomonas aeruginosa; assay: Antibacterial activity against multi drug resistant Pseudomonas aeruginosa NCTC 13437 assessed as reduction in bacterial growth by CLSI protocol based assay; format: functional
[8] = system: Enterobacter cloacae; assay: Antibacterial activity against ESBL positive Enterobacter cloacae NCTC 13405 assessed as reduction in bacterial growth by CLSI protocol based assay; format: functional
[9] = system: Acinetobacter baumannii; assay: Antibacterial activity against multi drug resistant ESBL positive Acinetobacter baumannii NCTC 13420 assessed as reduction in bacterial growth by CLSI protocol based assay; format: functional
[10] = system: Staphylococcus aureus; assay: Antibacterial activity against Staphylococcus aureus MRSA JE2 USA300 assessed as reduction in bacterial growth by CLSI protocol based assay; format: functional
[11] = system: Enterococcus faecalis; assay: Antibacterial activity against high level aminoglycoside resistant Enterococcus faecalis ATCC 51299 assessed as reduction in bacterial growth by CLSI protocol based assay; format: functional
[12] = system: Klebsiella pneumoniae; assay: Antibacterial activity against ESBL positive Klebsiella pneumoniae ATCC 700603 assessed as reduction in bacterial growth by CLSI protocol based assay
[13] = system: Escherichia coli; assay: Bacteriostatic activity against Escherichia coli at 250 ug/ml incubated for 1 hr followed by alamar blue addition measured after 2 to 3 hrs by fluorescence based analysis; format: functional, organism-based; conditions: dose 250.0 µg/ml
[14] = system: Escherichia coli; assay: Antibacterial activity against Escherichia coli K-12 assessed as reduction in bacterial growth by NCCLS protocol based broth dilution method; format: functional
[15] = system: Bacillus subtilis; assay: Antibacterial activity against Bacillus subtilis assessed as reduction in bacterial growth by NCCLS protocol based broth dilution method; format: functional
[16] = system: Pseudomonas aeruginosa; assay: Antibacterial activity against Pseudomonas aeruginosa assessed as reduction in bacterial growth by NCCLS protocol based broth dilution method; format: functional
[17] = system: Escherichia coli; assay: (§1) Inhibition of Escherichia coli MraY overexpressed in Escherichia coli membrane using UDP-MurNAc-L-Ala-gamma-D-Glu-L-Lys(N epsilon-dansyl)-D-Ala-D-Ala and undecaprenyl phosphate as substrate assessed as reduction in lipid II synthesis at 200 uM incubated for 30 mins in presence of [3H]-UDPGlcNAc by liquid scintillation counting analysis relative to control; format: cell membranes
[18] = system: Escherichia coli; assay: as §1, with “of” for “of Escherichia coli”, “analysis” for “analysis relative to control”; format: cell membranes
[19] = system: Escherichia coli; assay: Inhibition of MraY overexpressed in Escherichia coli membrane using UDP-MurNAc-L-Ala-gamma-D-Glu-L-Lys(N epsilon-dansyl)-D-Ala-D-Ala as substrate at 200 uM by continuous fluoresence assay; format: cell membranes
[20] = Inhibition of MraY overexpressed in Escherichia coli membrane using UDP-MurNAc-L-Ala-gamma-D-Glu-L-Lys(N epsilon-dansyl)-D-Ala-D-Ala as substrate by continuous fluoresence assay; format: cell membranes

Row | Structure (SMILES) | MIC50 [1] | MIC50 [2] | MIC50 [3] | inhibition [4] | MIC50 [7] | MIC50 [8] | MIC50 [9] | MIC50 [10] | MIC50 [11] | MIC50 [12] | other results
1 | CCCCCCC(=O)Nc1ccc(C(=O)N[C@@H](CCCCN)C(=O)OC)c(OCc2ccccc2)c1 | 8 µg/mL (≈ 16.1 µM) | 44 µg/mL (≈ 88.4 µM) | 125 µg/mL (≈ 251 µM) |  | > 256 µg/mL | > 256 µg/mL | > 256 µg/mL | > 256 µg/mL | 16 µg/mL (≈ 32.2 µM) | > 256 µg/mL | inhibition [6]: 36%
2 | CCCCCCCCOC(=O)[C@H](Cc1c[nH]c2ccccc12)NC(=O)[C@@H](N)CCCNC(=N)N | 5 µg/mL (≈ 10.6 µM) | 13 µg/mL (≈ 27.5 µM) | 18 µg/mL (≈ 38.1 µM) | inactive | > 256 µg/mL | > 256 µg/mL | > 256 µg/mL | > 256 µg/mL | > 256 µg/mL | > 256 µg/mL | Activity [13]: Active; MIC50 [14]: 31 µg/mL (≈ 65.6 µM); MIC50 [15]: 8 µg/mL (≈ 16.9 µM); MIC50 [16]: 40 µg/mL (≈ 84.6 µM)
3 | CCCCCCCCOC(=O)[C@H](Cc1c[nH]c2ccccc12)NC(=O)[C@@H](N)Cc1cnc[nH]1 | 8 µg/mL (≈ 17.6 µM) | 12 µg/mL (≈ 26.5 µM) | 21 µg/mL (≈ 46.3 µM) | inactive | 8 µg/mL (≈ 17.6 µM) | 32 µg/mL (≈ 70.5 µM) | 64 µg/mL (≈ 141 µM) | 16 µg/mL (≈ 35.3 µM) | 8 µg/mL (≈ 17.6 µM) | 64 µg/mL (≈ 141 µM) | 
4 | CCCCCCC(=O)N(CCc1c[nH]c2ccccc12)c1ccc(C(=O)N[C@@H](CCCCN)C(=O)OC)c(OCCc2c[nH]c3ccccc23)c1 | 4 µg/mL (≈ 5.76 µM) | 58 µg/mL (≈ 83.6 µM) | > 125 µg/mL |  | > 256 µg/mL | > 256 µg/mL | > 256 µg/mL | > 256 µg/mL | 16 µg/mL (≈ 23.1 µM) | > 256 µg/mL | inhibition [17]: 21%
5 | CCCCCCCCNC(=O)CNC(=O)[C@@H](N)CCCCN | 10 µg/mL (≈ 31.8 µM) | 2 µg/mL (≈ 6.36 µM) | 18 µg/mL (≈ 57.2 µM) | inactive |  |  |  |  |  |  | 
6 | CCCCCCC(=O)Nc1ccc(C(=O)N[C@@H](CCCCN)C(=O)OC)c(OCCc2c[nH]c3ccccc23)c1 | 28 µg/mL (≈ 50.8 µM) | 28 µg/mL (≈ 50.8 µM) | 56 µg/mL (≈ 102 µM) |  | > 256 µg/mL | > 256 µg/mL | > 256 µg/mL | > 256 µg/mL | 64 µg/mL (≈ 116 µM) | > 256 µg/mL | inhibition [17]: 12%
7 | CCCCCCC(=O)N(Cc1ccccc1)c1ccc(C(=O)N[C@@H](CCCCN)C(=O)OC)c(OCc2ccccc2)c1 | 7 µg/mL (≈ 11.9 µM) | 12 µg/mL (≈ 20.4 µM) | 46 µg/mL (≈ 78.3 µM) |  | > 256 µg/mL | > 256 µg/mL | > 256 µg/mL | > 256 µg/mL | 16 µg/mL (≈ 27.2 µM) | > 256 µg/mL | inhibition [6]: 62%; IC50 [20]: 140 µM
8 | CCCCCCCCNC(=O)c1ccc(NC(=O)[C@@H](N)CCCNC(=N)N)c(OCCc2c[nH]c3ccccc23)c1 | > 125 µg/mL | 10 µg/mL (≈ 17.7 µM) | > 125 µg/mL |  |  |  |  |  |  |  | inhibition [18]: inactive; inhibition [19]: inactive
9 | CCCCCCC(=O)N(Cc1ccccc1)c1ccc(C(=O)N[C@@H](CCCCN)C(=O)OC)c(OCCc2c[nH]c3ccccc23)c1 | 4 µg/mL (≈ 6.24 µM) | 28 µg/mL (≈ 43.7 µM) | > 125 µg/mL |  | > 256 µg/mL | > 256 µg/mL | > 256 µg/mL | > 256 µg/mL | 8 µg/mL (≈ 12.5 µM) | > 256 µg/mL | inhibition [17]: 22%

Second part, led by results:

Row | MIC50 [1] | MIC50 [2] | MIC50 [3] | inhibition [4] | Structure (SMILES) | MIC50 [7] | MIC50 [8] | MIC50 [9] | MIC50 [10] | MIC50 [11] | MIC50 [12] | other results
10 | 3 µg/mL (≈ 6.36 µM) | 7 µg/mL (≈ 14.8 µM) | 20 µg/mL (≈ 42.4 µM) | inactive | CCCCCCCCNC(=O)[C@H](Cc1c[nH]c2ccccc12)NC(=O)[C@@H](N)CCCNC(=N)N |  |  |  |  |  |  | Activity [5]: Active
11 | 30 µg/mL (≈ 54.6 µM) | 10 µg/mL (≈ 18.2 µM) | > 125 µg/mL |  | CCCCCCCCc1ccc(C(=O)N[C@@H](CCCNC(=N)N)C(=O)O)c(OCCc2c[nH]c3ccccc23)c1 |  |  |  |  |  |  | inhibition [18]: inactive; inhibition [19]: inactive
12 | 9 µg/mL (≈ 17.7 µM) | 10 µg/mL (≈ 19.7 µM) | 45 µg/mL (≈ 88.5 µM) | inactive | CCCCCCCCOC(=O)[C@H](Cc1c[nH]c2ccccc12)NC(=O)[C@@H](N)CCCNc1ncccn1 |  |  |  |  |  |  | 
13 | 3 µg/mL (≈ 5.99 µM) | 8 µg/mL (≈ 16 µM) | 3 µg/mL (≈ 5.99 µM) | inactive | CCCCCCCCCCOC(=O)[C@H](Cc1c[nH]c2ccccc12)NC(=O)[C@@H](N)CCCNC(=N)N |  |  |  |  |  |  | 
14 | 12 µg/mL (≈ 21 µM) | 8 µg/mL (≈ 14 µM) | 21 µg/mL (≈ 36.7 µM) |  | CCCCCCCCOC(=O)[C@H](Cc1c[nH]c2ccccc12)NC(=O)[C@H](CCCNC(=N)N)NC(=O)OC(C)(C)C |  |  |  |  |  |  | 
15 | 42 µg/mL (≈ 81.6 µM) | 9 µg/mL (≈ 17.5 µM) | 19 µg/mL (≈ 36.9 µM) |  | CCCCCCCCOC(=O)[C@H](Cc1c[nH]c2ccccc12)NC(=O)[C@H](CCCNC(=N)N)NC(C)=O |  |  |  |  |  |  | 
16 | 11 µg/mL (≈ 25.4 µM) | 11 µg/mL (≈ 25.4 µM) | 64 µg/mL (≈ 148 µM) | inactive | CCCCCCCCOC(=O)[C@H](Cc1ccccc1)NC(=O)[C@@H](N)CCCNC(=N)N |  |  |  |  |  |  | 
17 | 118 µg/mL (≈ 262 µM) | 25 µg/mL (≈ 55.6 µM) | 124 µg/mL (≈ 276 µM) | inactive | CCCCCCCCOC(=O)[C@H](Cc1ccc(O)cc1)NC(=O)[C@@H](N)CCCNC(=N)N |  |  |  |  |  |  | 
18 | 17 µg/mL (≈ 38.3 µM) | 11 µg/mL (≈ 24.8 µM) | 26 µg/mL (≈ 58.6 µM) | inactive | CCCCCCCCNC(=O)[C@H](Cc1c[nH]c2ccccc12)NC(=O)[C@@H](N)CCCCN |  |  |  |  |  |  | Activity [5]: Active
19 | 2 µg/mL (≈ 4.5 µM) | 1 µg/mL (≈ 2.25 µM) | 5 µg/mL (≈ 11.2 µM) | inactive | CCCCCCCCOC(=O)[C@H](Cc1c[nH]c2ccccc12)NC(=O)[C@@H](N)CCCCN |  |  |  |  |  |  | Activity [5]: Active
20 | 37 µg/mL (≈ 83.2 µM) | 13 µg/mL (≈ 29.2 µM) | 53 µg/mL (≈ 119 µM) | inactive | CCCCCCOC(=O)[C@H](Cc1c[nH]c2ccccc12)NC(=O)[C@@H](N)CCCNC(=N)N |  |  |  |  |  |  | 
